For one series, the system named is vaccinia virus (VV). The series can be described thus: microbe, parasite or virus in culture. Format: cell-based.
In another series the test system is cowpox virus (CV). Kind of series: microbe, parasite or virus in culture. Format: cell-based.
A further series is described as follows: in vitro. Conditions: human.
The mark [1] stands for this setting: Orthopoxvirus vaccinia, HFF, read-out: EC50 VV.
Where [2] appears, read: Cowpox virus, HFF, read-out: EC50 CV.
Where [3] appears, read: Orthopoxvirus vaccinia, HFF, read-out: Vaccinia virus EC50.
Setting [4] is: Cowpox virus, HFF, read-out: Cowpox virus EC50.

The values that follow come from paper PMC9628899 (Antiviral Research, 2003).

Where two headings read alike, the source gives them in different places. Some results are limits rather than exact numbers.

Usually EC50 stands for the concentration giving half of the maximal effect. For the compound `Nc1nc2c(ncn2COCCO)c(=O)[nH]1` [Acyclovir], the EC50 in the series on vaccinia virus (VV) (setting [1]) and in the series with cowpox virus (CV) (setting [2]) was over 300 µM in each case.
As for `Nc1nc(=O)c2ncn([C@@H]3C[C@H](CO)[C@H]3CO)c2[nH]1` [Lobucavir], the EC50 came out at 27 µM in the series on vaccinia virus (VV) (setting [1]) and 66 µM in the series on cowpox virus (CV) (setting [2]).
Compound `CCCCOC(=O)C(C)NP(=O)(COCCn1cnc2c(NC3CC3)nc(N)nc21)NC(C)C(=O)OCCCC` (stereo not drawn) [Bis(butylalaninyl) PME(N^6-cyclopropyl)DAP] displayed a CC50 with HFF cells of 49 ± 33 µM. Besides, the EC50 in the series on vaccinia virus (VV) (read-out: Vaccinia virus EC50) amounted to 0.08 ± 0.01 µM; in the series on cowpox virus (CV) (read-out: Cowpox virus EC50), 0.26 ± 0.2 µM.
`Nc1nc(N)c2ncn(CCOCP(=O)(O)O)c2n1` [PMEDAP] returned a CC50 in the series “in vitro” of over 339 µM. The EC50 in the series on vaccinia virus (VV) (setting [3]) is 204 ± 15 µM; in the series on cowpox virus (CV) (setting [4]) it was over 347 µM.
`Nc1ccn([C@@H]2O[C@H](CO)[C@@H](O)C2(F)F)c(=O)n1` [Gemcitabine]: in the series on HFF cells, the “toxicity in vitro (in words)” value is listed as “very toxic”. This compound also registered a selectivity index in the series on vaccinia virus (VV) of over 200. Besides, the values for the half-maximal effective concentration (EC50) with vaccinia virus (VV) (setting [1]) and in the series with cowpox virus (CV) (setting [2]) were 0.013 µM and 0.017 µM, respectively.
Turning to `Nc1ccn([C@@H]2CS[C@H](CO)O2)c(=O)n1` [Lamivudine], the concentration giving a half-maximal response (EC50) in the series with vaccinia virus (VV) (setting [1]) and in the series with cowpox virus (CV) (setting [2]) was over 400 µM each time.
In turn, `Nc1ncnc2c1ncn2CCOCP(=O)(O)O` [Adefovir, 9-(2-phosphonylmethoxyethyl)adenine] gave a CC50 in the series “in vitro” of over 366 µM. For the same compound, the EC50 with vaccinia virus (VV) (setting [1]) was over 300 µM; in the series on vaccinia virus (VV) (setting [3]) it was over 366 µM; with cowpox virus (CV) (setting [4]), over 366 µM; in the series with cowpox virus (CV) (setting [2]), over 300 µM.
Consider `CCCCOC(=O)[C@H](C)NP(=O)(COCCn1cnc2c(N)ncnc21)N[C@@H](C)C(=O)OCCCC` [Bis(butylalaninyl)PMEA], for which, in the series with HFF cells, the CC50 was 100 ± 27 µM. Also, the EC50 worked out at 4.4 ± 0.2 µM with vaccinia virus (VV) (read-out: Vaccinia virus EC50) and 10 ± 8.2 µM in the series with cowpox virus (CV) (read-out: Cowpox virus EC50).
With `C[C@H](Cn1cnc2c(N)ncnc21)OCP(=O)(O)O` [PMPA, (R)-9-(2-phosphonylmethoxypropyl)adenine], in “in vitro”, the CC50 is over 300 µM. Also, the EC50 in the series with vaccinia virus (VV) (setting [3]) and in the series on cowpox virus (CV) (setting [4]) was over 300 µM each time.
Turning to `O=c1[nH]c(=O)n([C@@H]2O[C@H](CO)[C@@H](O)[C@@H]2O)cc1/C=C/Br` [Sorivudine], the EC50 in the series on vaccinia virus (VV) (setting [1]) and in the series on cowpox virus (CV) (setting [2]) was over 100 µM each time.
Take `O=C(O)P(=O)(O)O` [Foscarnet]: the 50% effective concentration (EC50) in the series on vaccinia virus (VV) (setting [1]) and with cowpox virus (CV) (setting [2]) was over 300 µM in each case.
As to `CC(C)OC(=O)OCOP(=O)(CO[C@H](C)Cn1cnc2c(N)ncnc21)OCOC(=O)OC(C)C` [Viread], the EC50 with vaccinia virus (VV) (setting [1]) and in the series with cowpox virus (CV) (setting [2]) was over 300 µM each time.
For the compound `Nc1nc(N)c2ncn([C@H]3CO[C@@H](CO)O3)c2n1` [Amdoxovir], the EC50 with vaccinia virus (VV) (setting [1]) and with cowpox virus (CV) (setting [2]) was over 300 µM in each case.
As for `Cc1cn([C@H]2O[C@@H](CO)[C@H](O)[C@H]2F)c(=O)[nH]c1=O` [Clevudine], the EC50 in the series on vaccinia virus (VV) (setting [1]) and in the series with cowpox virus (CV) (setting [2]) was over 300 µM throughout.
In the series on HFF cells, `Nc1nc2c(ncn2CCOCP(=O)(O)O)c(=O)[nH]1` [PMEG, 2-phosphonylmethoxyethyl guanine] gave a CC50 of 88 µM. Also, the EC50 in the series with vaccinia virus (VV) (read-out: Vaccinia virus EC50) was 4 ± 0.7 µM; in the series on cowpox virus (CV) (read-out: Cowpox virus EC50), 11.4 ± 1.3 µM.
Compound `CC(C)OC(=O)OCOP(=O)(CO[C@H](C)Cn1cnc2c(N)ncnc21)OCOC(=O)OC(C)C` [Bis(isopropoxycarbonyloxymethyl)PMPA, bis(isopropoxycarbonyloxymethyl)PMPA] showed a CC50 in “in vitro” of over 157 µM. The EC50 in the series on vaccinia virus (VV) (setting [3]) and in the series on cowpox virus (CV) (setting [4]) was over 157 µM each time.
As for `CC(=O)OCC(CCn1cnc2cnc(N)nc21)COC(C)=O` [Famciclovir], the EC50 with vaccinia virus (VV) (setting [1]) and in the series on cowpox virus (CV) (setting [2]) was over 300 µM throughout.
With `NC(=O)c1ncn([C@@H]2O[C@H](CO)[C@@H](O)[C@H]2O)n1` [Ribavirin], the EC50 in the series with vaccinia virus (VV) (setting [1]) is 280 µM; in the series on cowpox virus (CV) (setting [2]), over 400 µM.
As for `O=c1[nH]c(=O)n([C@@H]2O[C@H](CO)[C@@H](O)[C@@H]2F)cc1I` [Fialuridine], the figures for the EC50 in the series with vaccinia virus (VV) (setting [1]) and in the series on cowpox virus (CV) (setting [2]) were 1.5 µM and 0.24 µM, respectively.
As to `C[C@H](NP1(=O)CO[C@@H](Cn2ccc(N)nc2=O)CO1)C(=O)OCCc1ccccc1` (stereo partly drawn) [Phenethyl alaninyl cyclic HPMPC—mixture, Phenethyl alaninyl cyclic HPMPC], the CC50 in the series on HFF cells is 207 ± 18 µM. Moreover, the EC50 in the series with vaccinia virus (VV) (read-out: Vaccinia virus EC50) was determined as 7.1 ± 0.3 µM; in the series with cowpox virus (CV) (read-out: Cowpox virus EC50), 6.8 ± 1.8 µM.
For the compound `Nc1cccc(CN2C(=O)N(Cc3cccc(N)c3)[C@H](Cc3ccccc3)[C@H](O)[C@@H](O)[C@H]2Cc2ccccc2)c1` [Mozenavir], the concentration giving a half-maximal response (EC50) in the series with vaccinia virus (VV) (setting [1]) and with cowpox virus (CV) (setting [2]) was over 100 µM each time.
In the case of `Nc1nc(O)c2ncn(COC(CO)CO)c2n1` [Ganciclovir], the EC50 in the series with vaccinia virus (VV) (setting [1]) and in the series on cowpox virus (CV) (setting [2]) was over 300 µM each time.
Take `C=C1[C@H](CO)[C@@H](O)C[C@@H]1n1cnc2c(=O)[nH]c(N)nc21` [Entecavir]: the 50% effective concentration (EC50) in the series with vaccinia virus (VV) (setting [1]) came out at 53 µM; in the series with cowpox virus (CV) (setting [2]), 85 µM.
In turn, `CC(C)OC(=O)[C@H](C)N[P@](=O)(CO[C@H](C)Cn1cnc2c(N)ncnc21)Oc1ccccc1` [Isopropyl alaninylphenyl PMPA] yielded a CC50 in “in vitro” of over 143 µM. In addition, the EC50 in the series with vaccinia virus (VV) (setting [3]) was found to be 23.5 µM; in the series on cowpox virus (CV) (setting [4]), 98.9 µM.
In the series on HFF cells, `CCOC(=O)C(C)NP1(=O)COC(Cn2ccc(N)nc2=O)CO1` (single isomer, unassigned; isomer i) [Ethyl alaninyl cyclic HPMPC—isomer I, Ethyl alaninyl cyclic HPMPC] returned a CC50 of over 276 µM. The EC50 in the series on vaccinia virus (VV) (read-out: Vaccinia virus EC50) turned out to be 15 ± 13 µM; in the series on cowpox virus (CV) (read-out: Cowpox virus EC50) it was 27 ± 6.5 µM.
`Nc1nc2c(ncn2CCC(CO)CO)c(=O)[nH]1` [Penciclovir]: the EC50 with vaccinia virus (VV) (setting [1]) and with cowpox virus (CV) (setting [2]) was over 300 µM in each case.
For the compound `Nc1nc(=O)n([C@@H]2CS[C@H](CO)O2)cc1F` [Coviracil], the EC50 with vaccinia virus (VV) (setting [1]) and in the series with cowpox virus (CV) (setting [2]) was over 81 µM throughout.
As to `O=c1[nH]c(=O)n([C@H]2C[C@H](O)[C@@H](CO)O2)cc1/C=C/Br` [Brivudin], the EC50 in the series on vaccinia virus (VV) (setting [1]) was over 100 µM; in the series on cowpox virus (CV) (setting [2]), 66 µM.
For Butyl salicyl cyclic HPMPC, the CC50 with HFF cells is over 213 µM. In addition, the half-maximal effective concentration (EC50) was found to be 32 ± 13 µM in the series on vaccinia virus (VV) (read-out: Vaccinia virus EC50) and 34 ± 4.2 µM in the series with cowpox virus (CV) (read-out: Cowpox virus EC50).
Consider `CCOCn1c(Cc2ccccc2)c(C(C)C)c(=O)[nH]c1=O` [Emivirine], for which the EC50 with vaccinia virus (VV) (setting [1]) and with cowpox virus (CV) (setting [2]) was over 300 µM each time.
In the series on HFF cells, `Nc1nc(NC2CC2)c2ncn(CCOCP(=O)(O)O)c2n1` [PME(N^6-cyclopropyl)DAP] registered a CC50 of over 263 µM. In addition, the values for the EC50 in the series with vaccinia virus (VV) (read-out: Vaccinia virus EC50) and in the series on cowpox virus (CV) (read-out: Cowpox virus EC50) were 23 ± 6.9 µM and 28 ± 13 µM, respectively.
On to `Nc1ncnc2c1ncn2C[C@@H](CO)OCP(=O)(O)O` [HPMPA, (S)-9-(3-hydroxy-2-phosphonylmethoxypropyl)adenine], for which the CC50 in the series on HFF cells worked out at 269 ± 21 µM. The “fold more active than CDV” value with vaccinia virus (VV) was “about 10 fold”. Moreover, the results for the EC50 with vaccinia virus (VV) (read-out: Vaccinia virus EC50) and with cowpox virus (CV) (read-out: Cowpox virus EC50) were 3.5 ± 2.8 µM and 5 ± 4.7 µM, respectively.
In the series on HFF cells, `CCOC(=O)C(C)NP1(=O)COC(Cn2ccc(N)nc2=O)CO1` (single isomer, unassigned; isomer ii) [Ethyl alaninyl cyclic HPMPC—isomer II, Ethyl alaninyl cyclic HPMPC] had a CC50 of over 278 µM. For the same compound, the 50% effective concentration (EC50) in the series with vaccinia virus (VV) (read-out: Vaccinia virus EC50) worked out at 15 ± 11 µM; in the series on cowpox virus (CV) (read-out: Cowpox virus EC50) it was 26 ± 3.5 µM.
`O=c1[nH]c(=O)n([C@H]2C[C@H](O)[C@@H](CO)O2)cc1I` [Idoxuridine]: the EC50 worked out at 6 µM in the series with vaccinia virus (VV) (setting [1]) and 2 µM in the series with cowpox virus (CV) (setting [2]).
